Laboratory results as given in PubChem BioAssay (NCI).
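Cells were grown in 96-well plates and exposed to each compound for 48 hours at five concentrations; endpoints were interpolated linearly between bracketing concentrations, or set to the highest concentration if not reached. TGI marks complete inhibition of growth.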

Assays:
Assay in all cases: NCI tumour cell line growth inhibition, 48 h
NCI-H226 lung = system: NCI-H226 lung
HOP-18 NSCLC = system: HOP-18 NSCLC
KM12 colon = system: KM12 colon
K-562 leukemia = system: K-562 leukemia
HCT-15 colon = system: HCT-15 colon
NCI-H23 lung = system: NCI-H23 lung
UACC-257 melanoma = system: UACC-257 melanoma
HOP-92 NSCLC = system: HOP-92 NSCLC
SF-268 CNS = system: SF-268 CNS
SN12K1 renal = system: SN12K1 renal
COLO 205 colon = system: COLO 205 colon
OVCAR-8 ovarian = system: OVCAR-8 ovarian
OVCAR-5 ovarian = system: OVCAR-5 ovarian
SNB-78 CNS = system: SNB-78 CNS
HOP-62 NSCLC = system: HOP-62 NSCLC
EKVX NSCLC = system: EKVX NSCLC
LOX IMVI melanoma = system: LOX IMVI melanoma
MCF7 breast = system: MCF7 breast
HCC-2998 colon = system: HCC-2998 colon
IGROV1 ovarian = system: IGROV1 ovarian
NCI-H522 lung = system: NCI-H522 lung
SF-295 CNS = system: SF-295 CNS
OVCAR-3 ovarian = system: OVCAR-3 ovarian
OVCAR-4 ovarian = system: OVCAR-4 ovarian
P388/ADR leukemia = system: P388/ADR leukemia
HCT-116 colon = system: HCT-116 colon
CAKI-1 renal = system: CAKI-1 renal
XF 498 CNS = system: XF 498 CNS
M19-MEL melanoma = system: M19-MEL melanoma
SK-MEL-28 melanoma = system: SK-MEL-28 melanoma
UACC-62 melanoma = system: UACC-62 melanoma
DMS 114 small cell lung = system: DMS 114 small cell lung
SK-OV-3 ovarian = system: SK-OV-3 ovarian
SK-MEL-5 melanoma = system: SK-MEL-5 melanoma
NCI/ADR-RES ovarian = system: NCI/ADR-RES ovarian
RXF 393 renal = system: RXF 393 renal
SW-620 colon = system: SW-620 colon
A498 renal = system: A498 renal
NCI-H460 lung = system: NCI-H460 lung
SF-539 CNS = system: SF-539 CNS
DMS 273 small cell lung = system: DMS 273 small cell lung
SNB-75 CNS = system: SNB-75 CNS
SN12C renal = system: SN12C renal
P388 leukemia = system: P388 leukemia
HT29 colon = system: HT29 colon
DLD-1 colon = system: DLD-1 colon
KM20L2 colon = system: KM20L2 colon
U251 CNS = system: U251 CNS
MALME-3M melanoma = system: MALME-3M melanoma
UO-31 renal = system: UO-31 renal
HL-60(TB) leukemia = system: HL-60(TB) leukemia
A549 NSCLC = system: A549 NSCLC
SK-MEL-2 melanoma = system: SK-MEL-2 melanoma
CCRF-CEM leukemia = system: CCRF-CEM leukemia
MOLT-4 leukemia = system: MOLT-4 leukemia
SNB-19 CNS = system: SNB-19 CNS
RPMI-8226 leukemia = system: RPMI-8226 leukemia
RXF-631 renal = system: RXF-631 renal
786-0 renal = system: 786-0 renal
ACHN renal = system: ACHN renal
TK-10 renal = system: TK-10 renal
LXFL 529 NSCLC = system: LXFL 529 NSCLC

## CN(C)C(=O)Oc1c(Br)cc(Br)cc1C(=O)OCc1ccccc1
NCI-H226 lung
  TGI: > 77.3 µM
HOP-18 NSCLC
  TGI: 96.9 µM
KM12 colon
  TGI: 75.9 µM
K-562 leukemia
  TGI: > 90.2 µM
HCT-15 colon
  TGI: > 81.7 µM
NCI-H23 lung
  TGI: > 72.9 µM
UACC-257 melanoma
  TGI: 60.2 µM
HOP-92 NSCLC
  TGI: 42.8 µM
SF-268 CNS
  TGI: > 100 µM
SN12K1 renal
  TGI: > 88.2 µM
COLO 205 colon
  TGI: 34 µM
OVCAR-8 ovarian
  TGI: > 100 µM
OVCAR-5 ovarian
  TGI: > 100 µM
SNB-78 CNS
  TGI: > 100 µM
HOP-62 NSCLC
  TGI: > 71.2 µM
EKVX NSCLC
  TGI: > 100 µM
LOX IMVI melanoma
  TGI: 60.2 µM
MCF7 breast
  TGI: > 70.3 µM
HCC-2998 colon
  TGI: > 96.5 µM
IGROV1 ovarian
  TGI: > 100 µM
NCI-H522 lung
  TGI: > 100 µM
SF-295 CNS
  TGI: 55.7 µM
OVCAR-3 ovarian
  TGI: 48 µM
OVCAR-4 ovarian
  TGI: > 100 µM
P388/ADR leukemia
  TGI: 41.6 µM
HCT-116 colon
  TGI: 29 µM
CAKI-1 renal
  TGI: 68.6 µM
XF 498 CNS
  TGI: 49.2 µM
M19-MEL melanoma
  TGI: 44.3 µM
SK-MEL-28 melanoma
  TGI: 97.3 µM
UACC-62 melanoma
  TGI: 39.4 µM
DMS 114 small cell lung
  TGI: 53.1 µM
SK-OV-3 ovarian
  TGI: > 100 µM
SK-MEL-5 melanoma
  TGI: 17.7 µM
NCI/ADR-RES ovarian
  TGI: 51.8 µM
RXF 393 renal
  TGI: > 75.6 µM
SW-620 colon
  TGI: > 100 µM
A498 renal
  TGI: 71.4 µM
NCI-H460 lung
  TGI: 56.5 µM
SF-539 CNS
  TGI: 53.4 µM
DMS 273 small cell lung
  TGI: > 73.2 µM
SNB-75 CNS
  TGI: 97 µM
SN12C renal
  TGI: 52.8 µM
P388 leukemia
  TGI: 43 µM
HT29 colon
  TGI: 19.2 µM
DLD-1 colon
  TGI: > 96.8 µM
KM20L2 colon
  TGI: 57.7 µM
U251 CNS
  TGI: 56.2 µM
MALME-3M melanoma
  TGI: 55.3 µM
UO-31 renal
  TGI: 68.9 µM
HL-60(TB) leukemia
  TGI: 49.9 µM
A549 NSCLC
  TGI: > 100 µM
SK-MEL-2 melanoma
  TGI: > 71.2 µM
CCRF-CEM leukemia
  TGI: 68.3 µM
MOLT-4 leukemia
  TGI: 44.3 µM
SNB-19 CNS
  TGI: > 100 µM
RPMI-8226 leukemia
  TGI: 52.4 µM

## COc1cccc2c1OC1Sc3ccccc3-c3nn(-c4ccccc4)c-2c31 (stereo unspecified)
HOP-18 NSCLC
  TGI: > 100 µM
KM12 colon
  TGI: > 100 µM
RXF-631 renal
  TGI: > 100 µM
K-562 leukemia
  TGI: > 100 µM
NCI-H23 lung
  TGI: > 100 µM
UACC-257 melanoma
  TGI: > 100 µM
HOP-92 NSCLC
  TGI: > 100 µM
SF-268 CNS
  TGI: > 100 µM
COLO 205 colon
  TGI: > 100 µM
OVCAR-8 ovarian
  TGI: > 100 µM
OVCAR-5 ovarian
  TGI: > 100 µM
SNB-78 CNS
  TGI: > 100 µM
HOP-62 NSCLC
  TGI: > 100 µM
EKVX NSCLC
  TGI: > 100 µM
LOX IMVI melanoma
  TGI: > 100 µM
786-0 renal
  TGI: > 100 µM
HCC-2998 colon
  TGI: > 100 µM
IGROV1 ovarian
  TGI: > 100 µM
NCI-H522 lung
  TGI: > 100 µM
SF-295 CNS
  TGI: > 100 µM
ACHN renal
  TGI: > 100 µM
OVCAR-3 ovarian
  TGI: > 100 µM
HCT-116 colon
  TGI: > 100 µM
XF 498 CNS
  TGI: > 100 µM
M19-MEL melanoma
  TGI: > 100 µM
SK-MEL-28 melanoma
  TGI: > 100 µM
DMS 114 small cell lung
  TGI: > 100 µM
SK-OV-3 ovarian
  TGI: > 100 µM
TK-10 renal
  TGI: > 100 µM
RXF 393 renal
  TGI: > 100 µM
SW-620 colon
  TGI: > 100 µM
A498 renal
  TGI: > 100 µM
NCI-H460 lung
  TGI: > 100 µM
SF-539 CNS
  TGI: > 100 µM
DMS 273 small cell lung
  TGI: > 100 µM
SNB-75 CNS
  TGI: > 100 µM
LXFL 529 NSCLC
  TGI: > 100 µM
HT29 colon
  TGI: > 100 µM
DLD-1 colon
  TGI: > 100 µM
KM20L2 colon
  TGI: > 100 µM
U251 CNS
  TGI: > 100 µM
MALME-3M melanoma
  TGI: > 100 µM
UO-31 renal
  TGI: > 100 µM
HL-60(TB) leukemia
  TGI: > 100 µM
A549 NSCLC
  TGI: > 100 µM
SK-MEL-2 melanoma
  TGI: > 100 µM
CCRF-CEM leukemia
  TGI: > 100 µM
MOLT-4 leukemia
  TGI: > 100 µM
RPMI-8226 leukemia
  TGI: > 100 µM
